{"source": "patent US8519121B2", "about": "“Dextran for treating lung cancer” (Guangzhou Konzern Pharmaceutical Co., Ltd., priority 2008, dated 2013)", "format_in_all_cases": "cell-based", "key": {"[1]": {"test_system": "Chinese Hamster Lung Epithelial cells (CHL)", "assay": "MTT cell proliferation, Chinese Hamster Lung Epithelial cells (CHL)", "details": "48 hours, 0.1 μg/ml; for A570: n = 9, X ± SD", "procedure": "(§1) Human lung cancer cell (A549), purchased from cell center of Xiangya School of Medicine, Central South University. Human small cell lung cancer (NCl-H446) and Chinese Hamster Lung Epithelial cells (CHL), purchased from Shanghai Institute of Biochemistry and Cell Biology, Chinese Academy of Sciences. Culture condition: RPMI 1640 medium with 10% bovine serum, 37° C., 5% CO2. Take the logarithmic phase cell for the following experiment.\n(§2) Weight 3.8 g KY-1-1 into 10 ml bottle, dissolve with DMSO, and then dilute with normal saline (N.S.) to 300.0 μg/ml, 100.0 μg/ml, 30.0 μg/ml, 10.0 μg/ml, 3.0 μg/ml, 1.0 μg/ml, put into 2 ml EP tube separately, preserve in 4° C.\n(§3) Injection Cisplatin (DDP), purchased from Qilu Pharmaceutical Co., Ltd., 10 mg/bottle, batch number 6030052 DB, dissolve with normal saline, dilute to 100.0 μg/ml, 10.0 μg/ml and 1.0 μg/ml.\n(§4) Taxol (TAX), purchased from Beijing Sihuan Pharmaceutical Technology Stock Company, 30 mg/5 ml/bottle, batch number 060830, dissolve with normal saline, dilute to 100.0 μg/ml, 10.0 μg/ml and 1.0 μg/ml. • (2) Method\n(§5) Preparing suspension of human lung cancer cell (A549), human small cell lung cancer (NCl-H446) and Chinese Hamster Lung Epithelial cells (CHL), adjust to 0.5×10^4 cells/ml, seed in 96-microplate, 180 μl/hole. After cell adhesion (about 12 hours), add sample and control solution 20 μl separately into each hole, adjust the final concentration of KY-1-1 to 0.1 μg/ml, 0.3 μg/ml, 1.0 μg/ml, 3.0 μg/ml, 10.0 μg/ml and 30.0 μg/ml, and the final concentration of DDP and TAX are both 0.1 μg/ml, incubate for 48 hours, and then add MTT (5 mg/ml, MTT:PBS) 20 μl to each hole, incubate for 6 hours, remove the liquid in each hole, and then add DMSO 100 μl to each hole in order to dissolve the purple blue precipitate, then detect the absorbency (A) in 570 nm by an enzyme-labeled instrument EXL-800. Calculate the inhibition ratio (IR) with the following equation: IR(%)=(1−mean of A of dextran group/mean of A of control group)×100%.\n(§6) The selective index (SI) of cytotoxicity of the dextran is calculated with the following equation: SI═IC50(CHL cells)/IC50(A549 cells or NCl-H446 cells),\n(§7) wherein IC50 is calculated by Calcus Zn procedure.\n(§8) Repeat the above experiment twice.\n(§9) Experiment data is expressed by X±SD, and use the software SPSS 15.0 Evaluation for windows to carry out One Way ANOVA analysis, and the analysis of variance uses the LSD method and SNK method. The result is compared by Student's test, there is statistic marked difference under the condition of […]."}, "[2]": {"test_system": "human small cell lung cancer (NCl-H446)", "assay": "MTT cell proliferation, human small cell lung cancer (NCl-H446)", "details": "NCI-H446 cells, 48 hours, 0.1 μg/ml; for A570: n = 9, X ± SD", "procedure": "as §1, §2, §3, §4, §5, §6, §7, §8, §9"}, "[3]": {"test_system": "human lung cancer cell (A549)", "assay": "MTT cell proliferation, human lung cancer (A549)", "details": "A549 cells, 48 hours, 0.1 μg/ml; for A570: n = 9, X ± SD", "procedure": "as §1, §2, §3, §4, §5, §6, §7, §8, §9"}, "[4]": {"test_system": "human small cell lung cancer (NCl-H446)", "assay": "Anchorage-dependent cell growth capacity, plate cloning method, NCl-H446", "details": "NCI-H446, plate cloning method, 7 days, 0.1 μg/ml; for Number of Colonies: n = 9, X ± SD", "procedure": "as §1\n(§10) Preparing suspension of human lung cancer cell (A549) and human small cell lung cancer (NCl-H446), adjust to 0.3×10^3 cells/ml. In each hole, cell suspension […], and sample 0.2 ml, and control solution 0.2 ml. The final concentration of KY-1-1 is 0.1 μg/ml, 0.3 μg/ml, 1.0 μg/ml, 3.0 μg/ml, 10.0 μg/ml and 30.0 μg/ml, and the final concentration of DDP and TAX are both 0.1 μg/ml, add the same volume medium into the control group. Three holes in each group, seed in 24-microplate, incubate in CO2 for 7 days. Add 95% methanol 0.5 ml into each hole, fixed for 15 minutes, and Giemsa staining for 10-30 minutes. The number of cells in a colony is more than 50, or the diameter of the colony is more than 75 μm. Count the number of colonies in each hole, calculate the mean and record it. Calculate the colony inhibition ratio (CIR) with the following equation: CIR(%)=(1−mean of number of colony of dextran group/mean of number of colony of control group)×100%.\n(§11) The plate efficiency (PE) is calculated with the following equation: PE=mean of number of colony/number of seeded cells×100%,\nas §7, §8, §9"}, "[5]": {"test_system": "human lung cancer cell (A549)", "assay": "Anchorage-dependent cell growth capacity, plate cloning method, A549", "details": "7 days, 0.1 μg/ml; for Number of Colonies: n = 9, X ± SD", "procedure": "as §1, §10, §11, §7, §8, §9"}, "[6]": {"test_system": "human small cell lung cancer (NCl-H446)", "assay": "Anchorage-independent cell growth (cell colony forming capacity in agar), NCl-H446", "details": "NCI-H446, colony forming in agar, 7 days, 0.1 μg/ml; for Number of Colonies: n = 9, X ± SD", "procedure": "as §1\n(§12) Take 24-microplate, add 0.6% agar medium 0.5 ml in each hole. Preparing suspension of human lung cancer cell (A549) and human small cell lung cancer (NCl-H446), adjust to 1.6×10^3 cells/ml. In each hole, cell suspension 1.6 ml, and sample 0.2 ml, and control solution 0.2 ml. The final concentration of KY-1-1 is 0.1 μg/ml, 0.3 μg/ml, 1.0 μg/ml, 3.0 μg/ml, 10.0 μg/ml and 30.0 μg/ml, and the final concentration of DDP and TAX are both 0.1 μg/ml. DDP 0.2 ml, and TAX 0.2 ml. Add the same volume medium into the control group. Three holes in each group, after mixing with 0.3% agar 0.2 ml, seed in 24-microplate 0.5 ml/hole, incubate in CO2 for 7 days. The number of cells in a colony is more than 50, or the diameter of the colony is more than 75 μm. Count the number of colonies in each hole, calculate the mean and record it. Calculate the colony inhibition ratio (CIR) with the following equation: CIR(%)=(1−mean of number of colony of dextran group/mean of number of colony of control group)×100%.\nas §11, §7, §8, §9"}, "[7]": {"test_system": "human lung cancer cell (A549)", "assay": "Anchorage-independent cell growth (cell colony forming capacity in agar), A549", "details": "7 days, 0.1 μg/ml; for Number of Colonies: n = 9, X ± SD", "procedure": "as §1, §12, §11, §7, §8, §9"}}}
{"compound": "N.N.[Cl][Pt][Cl]", "note": "[DDP, Cisplatin]", "values": [{"measurement": "IR (%)", "setting": "[1]", "result": 76.35, "unit": "%"}, {"measurement": "A570", "setting": "[1]", "result": "1.41 ± 0.30"}, {"measurement": "IR (%)", "setting": "[2]", "result": 77.89, "unit": "%"}, {"measurement": "A570", "setting": "[2]", "result": "0.36 ± 0.03"}, {"measurement": "IR (%)", "setting": "[3]", "result": 76.35, "unit": "%"}, {"measurement": "A570", "setting": "[3]", "result": "0.37 ± 0.03"}, {"measurement": "IR (%)", "setting": "[4]", "result": 78.44, "unit": "%"}, {"measurement": "Number of Colonies", "setting": "[4]", "result": "23.33 ± 4.18"}, {"measurement": "IR (%)", "setting": "[5]", "result": 75.82, "unit": "%"}, {"measurement": "Number of Colonies", "setting": "[5]", "result": "23.89 ± 4.43"}, {"measurement": "IR (%)", "setting": "[6]", "result": 75.98, "unit": "%"}, {"measurement": "Number of Colonies", "setting": "[6]", "result": "17.00 ± 2.74"}, {"measurement": "IR (%)", "setting": "[7]", "result": 77.05, "unit": "%"}, {"measurement": "Number of Colonies", "setting": "[7]", "result": "14.00 ± 2.00"}]}
{"compound": "CC(=O)O[C@H]1C(=O)[C@@]2(C)[C@H]([C@H](OC(=O)c3ccccc3)[C@]3(O)C[C@H](OC(=O)[C@H](O)[C@@H](NC(=O)c4ccccc4)c4ccccc4)C(C)=C1C3(C)C)[C@]1(OC(C)=O)CO[C@@H]1C[C@@H]2O", "note": "[TAX, Taxol]", "values": [{"measurement": "IR (%)", "setting": "[1]", "result": 83.13, "unit": "%"}, {"measurement": "A570", "setting": "[1]", "result": "1.25 ± 0.14"}, {"measurement": "IR (%)", "setting": "[2]", "result": 83.54, "unit": "%"}, {"measurement": "A570", "setting": "[2]", "result": "0.27 ± 0.01"}, {"measurement": "IR (%)", "setting": "[3]", "result": 83.13, "unit": "%"}, {"measurement": "A570", "setting": "[3]", "result": "0.27 ± 0.03"}, {"measurement": "IR (%)", "setting": "[4]", "result": 82.34, "unit": "%"}, {"measurement": "Number of Colonies", "setting": "[4]", "result": "19.11 ± 2.57"}, {"measurement": "IR (%)", "setting": "[5]", "result": 82.00, "unit": "%"}, {"measurement": "Number of Colonies", "setting": "[5]", "result": "17.78 ± 2.05"}, {"measurement": "IR (%)", "setting": "[6]", "result": 84.46, "unit": "%"}, {"measurement": "Number of Colonies", "setting": "[6]", "result": "11.00 ± 1.58"}, {"measurement": "IR (%)", "setting": "[7]", "result": 83.61, "unit": "%"}, {"measurement": "Number of Colonies", "setting": "[7]", "result": "10.00 ± 1.87"}]}
